In PubChem BioAssay AID489035 (Sanford-Burnham Center for Chemical Genomics, 2010):
Calls of active or inactive are those of the source. No rule for the calls is given here.

tested on: Jurkat NF-kB reporter, TCR-induced, luciferase luminescence; assay: inhibitors of TCR-driven NF-kB activation, dose response, Jurkat cells, luminescence (AID 489035)

| SMILES | IC50 |
| --- | --- |
| COc1ccc(Nc2nc(-c3sc(C)nc3C)cs2)cc1 | 38.8 µM (inactive) |
| CC(C)n1c(CN(C)Cc2ccccc2)nc2c1c(=O)n(C)c(=O)n2C | > 80 µM (inactive) |
| CCOC(=O)c1ccccc1NC(=O)Cn1c(-c2nonc2N)nc2ccccc21 | > 80 µM (inactive) |
| CCOC(=O)C(C)Oc1cccc2c(=O)n(CC(=O)NCc3ccc4c(c3)OCO4)ccc12 (configuration not stated) | 9.88 µM |
| C[C@@H]1O[C@@H](O[C@H]2C[C@@H](O)[C@]3(CO)[C@H]4[C@H](O)C[C@]5(C)[C@@H](C6COC(=O)C6)CC[C@]5(O)[C@@H]4CC[C@]3(O)C2)[C@H](O)[C@H](O)[C@H]1O (some centres not stated) | > 80 µM (inactive) |
| COc1cc(C2c3cc4c(cc3CC3COC(=O)C32)OCO4)cc(OC)c1OC (configuration not stated) | > 80 µM (inactive) |
| COc1ccc(-n2nnnc2-c2cccc(OC)c2)cc1 | > 80 µM (inactive) |
| CC(C)Nc1ccc(C(CC(N)=O)NC(=O)c2ccc(Br)cc2)cc1[N+](=O)[O-] (configuration not stated) | 4.05 µM |
| COC(=O)Nc1ccc(S(=O)(=O)N2c3ccccc3CCC2C)cc1 (configuration not stated) | 26.6 µM (inactive) |
| COc1ccc(/C=N/Nc2cc(C)nc3ccc(OC)cc23)c(OC)c1 | 2.4 µM |
| COC(=O)c1ccccc1NC(=O)CSc1nc(-c2ccco2)cc(C(F)(F)F)n1 | 72.2 µM (inactive) |
| CCOC(=O)N1CCN(C(=O)C2CCCN(Cc3nc(-c4ccc(Cl)cc4)oc3C)C2)CC1 (configuration not stated) | > 80 µM (inactive) |
| COc1ccc(/C=C/C(=O)c2cc(F)ccc2OC(=O)c2ccccc2)cc1OC | 2.49 µM |
| Cc1ccc2c(c1)Oc1ccc(NC(=O)CCl)cc1C(=O)N2 | 5.22 µM |
| COc1ccc2nc(C)cc(N/N=C/c3ccc(F)cc3)c2c1 | 2.35 µM |
| O=C(Nc1ccc(Cl)c(S(=O)(=O)N2CCOCC2)c1)c1ccc(OCC2CCCO2)cc1 (configuration not stated) | 18.3 µM |
| Cc1ccc(C(=O)c2cc([N+](=O)[O-])ccc2N2CCCCC2)c(C)c1 | > 80 µM (inactive) |
| CCCCOc1ccc(Br)cc1/C(C)=N/NC1=NCCN1 | 5.51 µM |
| CCOC(=O)c1[nH]c(C)c(C(=O)Nc2ccccc2C)c1C | < 0.16 µM |

| SMILES | IC50 |
| --- | --- |
| Cc1cc(-c2ccc(S(=O)(=O)N(C)c3ccc(C)c(C)c3)s2)on1 | > 80 µM (inactive) |
| Nc1nc(Cl)cc(N2CCC(c3cc(-c4ccc(Cl)cc4)n[nH]3)CC2)n1 | 1.87 µM |
| CCCC(=O)Nc1nc2ccc(S(=O)(=O)N3CCCCC3)cc2s1 | > 80 µM (inactive) |
| CN(C)c1ccc2c(c1)OC(N)=C(C#N)C2c1cccc(F)c1 (configuration not stated) | 50.2 µM (inactive) |
| COc1ccc(NC(=O)/C(Cl)=C(/Cl)S(=O)Cc2ccccc2)cn1 (configuration not stated) | 0.26 µM |
| C#Cc1ccc([C@@H]2C=C(C(=O)N3CCN(Cc4ccccc4)CC3)O[C@H](OCCCCO)C2)cc1 | > 80 µM (inactive) |
| C/C=C/COC(=O)c1[nH]c2c(c1C)C(=O)CC(c1ccco1)C2 (configuration not stated) | > 80 µM (inactive) |
| Cc1c(C(=O)N/N=C/c2c(O)ccc3ccccc23)nnn1-c1nonc1N | > 80 µM (inactive) |
| CCOc1ccccc1C1CC(=O)Nc2cc3c(cc21)OCCO3 (configuration not stated) | 3.96 µM |
| COc1ccc(C)cc1NS(=O)(=O)c1ccc(-c2cnc(C3CC3)o2)cc1 | > 80 µM (inactive) |
| CC1Cc2cc(-c3csc(NC(=O)Cc4cccs4)n3)ccc2N1S(C)(=O)=O (configuration not stated) | 5.4 µM |
| COc1ccc(NC(=O)/C(Cl)=C(/Cl)S(=O)Cc2ccc(C)cc2)cn1 (configuration not stated) | 0.32 µM |
| COc1cc(-c2noc(C)c2-c2ccc(N(C)C)nc2)cc(OC)c1OC | > 80 µM (inactive) |
| CCOc1ccc2c(c1)sc(N)[n+]2Cc1cc(C)cc2cccnc12 | 7.8 µM |
| CCC(=O)NC(c1cccs1)c1ccc2cccnc2c1O (configuration not stated) | 60.4 µM (inactive) |
| Cc1ccccc1NS(=O)(=O)c1ccc(N2CCCC2=O)cc1 | 71.8 µM (inactive) |
| COc1cccc(N2CCN(c3ncnc4c3cnn4-c3ccc(C)cc3C)CC2)c1 | 11 µM |
| Cc1ccc2c(c1)C=CC(C#N)N2C(=O)c1ccccc1 (configuration not stated) | > 80 µM (inactive) |
